Data published in patent US12611395B2, “Use of carbamate compound for preventing or treating trigeminal neuralgia” (SK BIOPHARMACEUTICALS CO., LTD., priority 2016, dated 2026).

Columns and labels:
[1] = test system: rats in which trigeminal neuralgia was induced by the trigeminal nerve root compression; test: Air-puff test of mechanical allodynia in rats with trigeminal neuralgia induced by trigeminal nerve root compression; assay type: in vivo, rats (Sprague-Dawley); conditions: rat; for analgesic effect on mechanical allodynia induced by trigeminal nerve root compression: FIG. 2
Experimental: (§1) Mature male rats (Sprague-Dawley, 200-230 g) were used. The experimental animals were maintained under conditions of light-and-darkness cycle of 12 hours, a temperature of 22 to 25° C., a relative humidity of 40 to 60%, and free access to water and food.
Rats were anesthetized with a mixed solution of ketamine (40 mg/kg) and xylazine (4 mg/kg), fixed on a stereotaxic instrument, and 4% agar solution was injected into the left trigeminal nerve roots using a stainless steel injection tube to compress the trigeminal nerve roots. 10 μl of 4% agar solution was slowly injected over the trigeminal nerve roots for 5 seconds, and the injection tube was removed after 5 minutes and then sutured (Jeon H J. et. al., A novel trigeminal neuropathic pain model: compression of the trigeminal nerve root produces prolonged nociception in rats, Prog Neuropsychopharmacol Biol Psychiatry. 2012).
(§2) To observe the behavioral response, the animals were placed in a cage and adapted for 20 minutes in a quiet area, followed by an air-puff test to assess mechanical allodynia to air stimulation. Aggressive behaviors such as head movement to avoid air stimulation or biting in response to the air stimulation applied to the facial region which is dominated by the trigeminal nerve were used as evaluation criteria for the behavioral reflex. A total of 10 trials and 50% or more responses were considered as the threshold of stimulation.
(§3) On the 7th day after surgery, the test compound (10, 30 and 50 mg/kg) and carbamazepine (25 and 50 mg/kg) were intraperitoneally administered to the test animals in which allodynia had been induced. At 30 minutes, 60 minutes, 90 minutes, 2 hours, 3 hours, 4 hours and 6 hours after administration, the pharmacological effects of the drugs were evaluated by observing changes in the behavioral responses.
(§4) The effect of the compounds was expressed as mean±standard error, and statistical significance was recognized when data were p<0.05 difference using one-way ANOVA and Dunnett's test.

[2] = test system: rats in which facial pain was induced by inferior alveolar nerve injury; test: Air-puff test of mechanical allodynia in rats with facial pain induced by inferior alveolar nerve injury; assay type: in vivo, rats (Sprague-Dawley); conditions: rat; for analgesic effect on mechanical allodynia induced by inferior alveolar nerve injury: FIG. 4
Experimental: as §1, §2
as §3, with “test compound (5, 10 and 20” for “test compound (10, 30 and 50”, “10 and 20 mg/kg) and” for “30 and 50 mg/kg) and”
as §4

[3] = patients treated for trigeminal neuralgia; cited from earlier work
[4] = test system: formalin-induced pain behavioral response in rats; test: Formalin-induced facial pain behavioral response in rats; assay type: in vivo, rats (Sprague-Dawley); conditions: 5 and 20 mg/kg intraperitoneal 30 minutes before 5% formalin, rat, FIG. 5
Experimental: as §1
5% Formalin (50 μl) was injected subcutaneously into the vibrissa pad on the left facial area of the rats using an insulin syringe (31 gauge). The behavioral response of rubbing or scratching the maxillofacial area was observed from 10 minutes after injection, accumulating in a unit of 5 minutes, for a total of 35 minutes (Park M K. et. al., Peripheral administration of NR2 antagonists attenuates orofacial formalin-induced nociceptive behavior in rats, Prog Neuropsychopharmacol Biol Psychiatry, 2011).
The vehicle, the test compound (5 and 20 mg/kg) and carbamazepine (25 mg/kg) were intraperitoneally administered, and after 30 minutes 5% formalin was injected into the left facial area.
as §4

[5] = 30 and 50 mg/kg intraperitoneal
[6] = overall conclusion, intraperitoneal

Row | SMILES | analgesic effect on mechanical allodynia induced by trigeminal nerve root compression ([1]; 25 mg/kg intraperitoneal) | analgesic effect on mechanical allodynia induced by trigeminal nerve root compression ([1]; 50 mg/kg intraperitoneal) | analgesic effect on mechanical allodynia induced by inferior alveolar nerve injury ([2]; 25 mg/kg intraperitoneal) | time after administration at which the analgesic effect completely disappeared ([2]; 50 mg/kg intraperitoneal) [h] | analgesic effect on mechanical allodynia induced by inferior alveolar nerve injury ([2]; 50 mg/kg intraperitoneal) | patients with side effects drowsiness, ataxia, nausea and anorexia [3] | inhibition of mechanical allodynia induced by trigeminal nerve root compression ([1]; 30 and 50 mg/kg intraperitoneal, 7th day after surgery, FIG. 1) | time after administration for which analgesic effect was maintained [1, 5] [h] | time after administration from which analgesic effect could be observed [1, 5] [min] | analgesic action in the trigeminal neuralgia animal model compared with carbamazepine [1, 6] | time after administration from which significant pain-relieving effect was observed ([2]; 20 mg/kg intraperitoneal) [min] | time for which pain-relieving effect was maintained ([2]; 20 mg/kg intraperitoneal) [h] | inhibition of mechanical allodynia induced by inferior alveolar nerve injury ([2]; 5, 10 and 20 mg/kg intraperitoneal, 7th day after surgery, FIG. 3) | time after administration from which the effect was significant ([2]; 5 and 10 mg/kg intraperitoneal) [min] | time after administration up to which the effect was significant ([2]; 5 and 10 mg/kg intraperitoneal) [h] | analgesic action in the inferior alveolar nerve injury-induced facial pain model compared with carbamazepine [2, 6] | pain behavioral response as compared with the vehicle-administered group [4]
1 | NC(=O)N1c2ccccc2C=Cc2ccccc21 [carbamazepine, reference compound] | no analgesic effect | transient low analgesic effect | no analgesic effect | 2 | significant analgesic effect | about 40% |  |  |  |  |  |  |  |  |  |  | 
2 | NC(=O)O[C@@H](Cn1ncnn1)c1ccccc1Cl [test compound] |  |  |  |  |  |  | significantly inhibited | 6 | 60 | better analgesic action than carbamazepine | 90 | 4 | significantly inhibited | 90 | 2 | equivalent to or greater than carbamazepine | statistically significant decrease
